According to ChEMBL document CHEMBL4507292 (2021):

What was measured:
Conditions in all cases: Compound concentration 1000.0 nM
[1] = system: Tyrosine-protein kinase ABL1 (Homo sapiens), P00519 [T315I]
[2] = biological target: RAC-gamma serine/threonine-protein kinase (Homo sapiens) (UniProt Q9Y243)
[3] = biological target: NUAK family SNF1-like kinase 1 (Homo sapiens) (UniProt O60285)
[4] = biological target: Mitogen-activated protein kinase kinase kinase 5 (Homo sapiens) (UniProt Q99683)
[5] = biological target: BMP-2-inducible protein kinase (Homo sapiens) (UniProt Q9NSY1)
[6] = biological target: Protein-tyrosine kinase 6 (Homo sapiens) (UniProt Q13882)
[7] = biological target: Calcium/calmodulin-dependent protein kinase type 1 (Homo sapiens) (UniProt Q14012)
[8] = biological target: Calcium/calmodulin-dependent protein kinase type 1B (Homo sapiens) (UniProt Q6P2M8)
[9] = biological target: Calcium/calmodulin-dependent protein kinase type 1G (Homo sapiens) (UniProt Q96NX5)
[10] = biological target: Cyclin-dependent kinase 19 (Homo sapiens) (UniProt Q9BWU1)
[11] = biological target: Cyclin-dependent kinase 3 (Homo sapiens) (UniProt Q00526)
[12] = biological target: Cyclin-dependent kinase-like 2 (Homo sapiens) (UniProt Q92772)
[13] = biological target: Cyclin-dependent kinase-like 3 (Homo sapiens) (UniProt Q8IVW4)
[14] = biological target: Dual specificity protein kinase CLK2 (Homo sapiens) (UniProt P49760)
[15] = biological target: Death-associated protein kinase 1 (Homo sapiens) (UniProt P53355)
[16] = biological target: Serine/threonine-protein kinase DCLK1 (Homo sapiens) (UniProt O15075)
[17] = system: Epidermal growth factor receptor (Homo sapiens), P00533 [UNDEFINED MUTATION]
[18] = system: Epidermal growth factor receptor (Homo sapiens), P00533 [L861Q]
[19] = biological target: Ephrin type-A receptor 1 (Homo sapiens) (UniProt P21709)
[20] = biological target: Ephrin type-A receptor 5 (Homo sapiens) (UniProt P54756)
[21] = biological target: Ephrin type-B receptor 1 (Homo sapiens) (UniProt P54762)
[22] = biological target: Mitogen-activated protein kinase 1 (Homo sapiens) (UniProt P28482)
[23] = biological target: Fibroblast growth factor receptor 2 (Homo sapiens) (UniProt P21802)
[24] = biological target: Inhibitor of nuclear factor kappa-B kinase subunit beta (Homo sapiens) (UniProt O14920)
[25] = system: Leucine-rich repeat serine/threonine-protein kinase 2 (Homo sapiens), Q5S007 [G2019S]
[26] = biological target: MAP/microtubule affinity-regulating kinase 3 (Homo sapiens) (UniProt P27448)
[27] = biological target: MAP kinase-interacting serine/threonine-protein kinase 1 (Homo sapiens) (UniProt Q9BUB5)
[28] = biological target: Serine/threonine-protein kinase 24 (Homo sapiens) (UniProt Q9Y6E0)
[29] = biological target: Serine/threonine-protein kinase Nek5 (Homo sapiens) (UniProt Q6P3R8)
[30] = biological target: Serine/threonine-protein kinase PAK 3 (Homo sapiens) (UniProt O75914)
[31] = system: Phosphatidylinositol 4,5-bisphosphate 3-kinase catalytic subunit alpha isoform (Homo sapiens), P42336 [E545K]
[32] = biological target: Phosphatidylinositol 4,5-bisphosphate 3-kinase catalytic subunit beta isoform (Homo sapiens) (UniProt P42338)
[33] = biological target: 1-phosphatidylinositol 3-phosphate 5-kinase (Homo sapiens) (UniProt Q9Y2I7)
[34] = biological target: Serine/threonine-protein kinase pim-3 (Homo sapiens) (UniProt Q86V86)
[35] = biological target: cAMP-dependent protein kinase catalytic subunit alpha (Homo sapiens) (UniProt P17612)
[36] = biological target: Serine/threonine-protein kinase PLK3 (Homo sapiens) (UniProt Q9H4B4)
[37] = biological target: Protein kinase C epsilon type (Homo sapiens) (UniProt Q02156)
[38] = biological target: RAF proto-oncogene serine/threonine-protein kinase (Homo sapiens) (UniProt P04049)
[39] = biological target: Proto-oncogene tyrosine-protein kinase receptor Ret (Homo sapiens) (UniProt P07949)
[40] = biological target: Receptor-interacting serine/threonine-protein kinase 4 (Homo sapiens) (UniProt P57078)
[41] = biological target: Ribosomal protein S6 kinase alpha-2 (Homo sapiens) (UniProt Q15349)
[42] = biological target: Serine/threonine-protein kinase Sgk3 (Homo sapiens) (UniProt Q96BR1)
[43] = biological target: Serine/threonine-protein kinase 16 (Homo sapiens) (UniProt O75716)
[44] = biological target: Tyrosine-protein kinase Tec (Homo sapiens) (UniProt P42680)
[45] = biological target: Tyrosine-protein kinase receptor TYRO3 (Homo sapiens) (UniProt Q06418)

Measured: residual activity

Sequence of Cyclin-dependent kinase-like 3 (Homo sapiens) (Q8IVW4 whole entry, looked up): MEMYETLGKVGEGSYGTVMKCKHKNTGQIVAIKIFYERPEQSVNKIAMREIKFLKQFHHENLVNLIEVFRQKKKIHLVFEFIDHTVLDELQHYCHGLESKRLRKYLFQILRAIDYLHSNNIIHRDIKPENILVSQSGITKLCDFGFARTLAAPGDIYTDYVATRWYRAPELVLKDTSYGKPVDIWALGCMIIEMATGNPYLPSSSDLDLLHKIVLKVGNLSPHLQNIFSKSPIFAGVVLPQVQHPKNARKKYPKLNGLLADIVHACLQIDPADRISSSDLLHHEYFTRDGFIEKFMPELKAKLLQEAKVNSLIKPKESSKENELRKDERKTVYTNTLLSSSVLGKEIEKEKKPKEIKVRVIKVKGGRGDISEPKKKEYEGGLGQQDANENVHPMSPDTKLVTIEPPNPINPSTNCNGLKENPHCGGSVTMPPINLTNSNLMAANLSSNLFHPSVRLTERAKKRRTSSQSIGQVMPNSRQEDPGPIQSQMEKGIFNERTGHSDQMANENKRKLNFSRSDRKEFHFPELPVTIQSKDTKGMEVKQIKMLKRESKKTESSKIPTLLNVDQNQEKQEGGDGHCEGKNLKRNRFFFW
Sequence of Mitogen-activated protein kinase 1 (Homo sapiens) (P28482 whole entry): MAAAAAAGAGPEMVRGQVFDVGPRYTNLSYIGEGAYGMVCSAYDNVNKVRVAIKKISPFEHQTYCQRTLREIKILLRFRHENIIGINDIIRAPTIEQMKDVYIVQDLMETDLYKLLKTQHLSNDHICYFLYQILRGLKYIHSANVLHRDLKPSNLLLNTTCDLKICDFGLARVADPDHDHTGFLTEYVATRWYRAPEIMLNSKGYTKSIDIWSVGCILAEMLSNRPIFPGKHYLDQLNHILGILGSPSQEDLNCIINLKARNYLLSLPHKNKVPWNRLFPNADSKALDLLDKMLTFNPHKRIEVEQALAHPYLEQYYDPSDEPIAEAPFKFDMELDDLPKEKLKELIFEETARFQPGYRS
Sequence of Serine/threonine-protein kinase DCLK1 (Homo sapiens) (O15075 whole entry): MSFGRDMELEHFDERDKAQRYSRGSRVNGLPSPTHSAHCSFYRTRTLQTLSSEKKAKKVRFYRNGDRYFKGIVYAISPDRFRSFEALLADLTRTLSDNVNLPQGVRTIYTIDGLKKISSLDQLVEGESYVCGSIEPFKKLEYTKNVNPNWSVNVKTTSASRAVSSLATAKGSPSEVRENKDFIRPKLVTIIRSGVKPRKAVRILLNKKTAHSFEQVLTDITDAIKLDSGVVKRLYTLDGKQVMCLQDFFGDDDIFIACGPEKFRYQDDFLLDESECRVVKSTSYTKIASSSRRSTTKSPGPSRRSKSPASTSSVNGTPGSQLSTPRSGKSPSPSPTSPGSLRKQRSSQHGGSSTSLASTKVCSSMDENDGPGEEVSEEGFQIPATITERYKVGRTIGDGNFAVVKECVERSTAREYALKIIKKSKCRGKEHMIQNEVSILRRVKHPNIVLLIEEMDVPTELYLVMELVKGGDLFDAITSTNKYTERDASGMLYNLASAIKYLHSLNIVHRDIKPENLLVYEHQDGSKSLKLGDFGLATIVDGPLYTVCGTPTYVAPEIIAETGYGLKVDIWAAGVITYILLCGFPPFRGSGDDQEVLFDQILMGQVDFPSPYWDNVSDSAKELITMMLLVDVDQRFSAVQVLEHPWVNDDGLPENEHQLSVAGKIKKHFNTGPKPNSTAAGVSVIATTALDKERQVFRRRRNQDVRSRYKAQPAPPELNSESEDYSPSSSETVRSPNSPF
Sequence of Serine/threonine-protein kinase PLK3 (Homo sapiens) (Q9H4B4 whole entry, looked up): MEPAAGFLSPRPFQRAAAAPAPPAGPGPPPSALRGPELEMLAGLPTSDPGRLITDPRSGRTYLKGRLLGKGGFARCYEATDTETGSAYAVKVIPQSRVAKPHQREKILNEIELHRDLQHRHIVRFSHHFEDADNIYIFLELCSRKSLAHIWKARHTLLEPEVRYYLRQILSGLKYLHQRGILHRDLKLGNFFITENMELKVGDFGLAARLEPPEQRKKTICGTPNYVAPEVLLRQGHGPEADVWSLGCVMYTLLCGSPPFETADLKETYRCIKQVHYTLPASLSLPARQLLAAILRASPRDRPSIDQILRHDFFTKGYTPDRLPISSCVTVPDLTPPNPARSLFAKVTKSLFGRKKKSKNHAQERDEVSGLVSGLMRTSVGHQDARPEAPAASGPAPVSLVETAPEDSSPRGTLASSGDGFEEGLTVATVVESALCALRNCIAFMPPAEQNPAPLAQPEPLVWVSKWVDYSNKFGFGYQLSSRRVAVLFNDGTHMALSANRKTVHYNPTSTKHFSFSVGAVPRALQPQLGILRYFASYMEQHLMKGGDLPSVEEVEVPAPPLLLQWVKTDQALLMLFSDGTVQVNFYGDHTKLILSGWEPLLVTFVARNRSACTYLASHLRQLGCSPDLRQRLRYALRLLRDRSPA
Sequence of Phosphatidylinositol 4,5-bisphosphate 3-kinase catalytic subunit beta isoform (Homo sapiens) (P42338 whole entry, looked up, canonical isoform): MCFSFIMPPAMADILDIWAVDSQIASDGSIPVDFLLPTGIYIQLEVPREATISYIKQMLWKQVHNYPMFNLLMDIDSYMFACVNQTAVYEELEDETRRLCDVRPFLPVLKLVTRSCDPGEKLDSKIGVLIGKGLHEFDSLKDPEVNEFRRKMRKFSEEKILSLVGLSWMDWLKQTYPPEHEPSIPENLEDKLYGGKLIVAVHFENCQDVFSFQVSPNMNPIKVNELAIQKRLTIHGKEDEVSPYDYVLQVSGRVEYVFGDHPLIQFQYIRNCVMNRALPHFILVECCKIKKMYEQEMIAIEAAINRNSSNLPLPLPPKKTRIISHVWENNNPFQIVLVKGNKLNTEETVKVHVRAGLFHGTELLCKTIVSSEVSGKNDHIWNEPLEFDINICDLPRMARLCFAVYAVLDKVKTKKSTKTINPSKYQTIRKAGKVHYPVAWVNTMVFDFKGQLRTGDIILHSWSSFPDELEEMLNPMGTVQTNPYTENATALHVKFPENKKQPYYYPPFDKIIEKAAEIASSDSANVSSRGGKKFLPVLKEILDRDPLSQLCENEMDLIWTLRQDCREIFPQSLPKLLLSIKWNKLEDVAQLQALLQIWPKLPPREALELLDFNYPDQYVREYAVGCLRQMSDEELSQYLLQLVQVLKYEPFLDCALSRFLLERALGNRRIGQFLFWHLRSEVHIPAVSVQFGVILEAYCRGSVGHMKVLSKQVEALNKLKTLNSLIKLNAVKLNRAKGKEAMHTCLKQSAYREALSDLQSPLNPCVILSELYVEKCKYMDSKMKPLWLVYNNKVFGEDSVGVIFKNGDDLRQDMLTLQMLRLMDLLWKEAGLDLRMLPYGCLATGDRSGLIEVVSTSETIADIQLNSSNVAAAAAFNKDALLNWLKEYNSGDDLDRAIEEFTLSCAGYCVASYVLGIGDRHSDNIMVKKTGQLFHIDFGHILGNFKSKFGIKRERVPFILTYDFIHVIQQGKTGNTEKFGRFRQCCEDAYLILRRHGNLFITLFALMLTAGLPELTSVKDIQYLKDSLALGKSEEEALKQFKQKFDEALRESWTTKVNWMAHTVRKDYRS
Sequence of MAP/microtubule affinity-regulating kinase 3 (Homo sapiens) (P27448 whole entry, looked up): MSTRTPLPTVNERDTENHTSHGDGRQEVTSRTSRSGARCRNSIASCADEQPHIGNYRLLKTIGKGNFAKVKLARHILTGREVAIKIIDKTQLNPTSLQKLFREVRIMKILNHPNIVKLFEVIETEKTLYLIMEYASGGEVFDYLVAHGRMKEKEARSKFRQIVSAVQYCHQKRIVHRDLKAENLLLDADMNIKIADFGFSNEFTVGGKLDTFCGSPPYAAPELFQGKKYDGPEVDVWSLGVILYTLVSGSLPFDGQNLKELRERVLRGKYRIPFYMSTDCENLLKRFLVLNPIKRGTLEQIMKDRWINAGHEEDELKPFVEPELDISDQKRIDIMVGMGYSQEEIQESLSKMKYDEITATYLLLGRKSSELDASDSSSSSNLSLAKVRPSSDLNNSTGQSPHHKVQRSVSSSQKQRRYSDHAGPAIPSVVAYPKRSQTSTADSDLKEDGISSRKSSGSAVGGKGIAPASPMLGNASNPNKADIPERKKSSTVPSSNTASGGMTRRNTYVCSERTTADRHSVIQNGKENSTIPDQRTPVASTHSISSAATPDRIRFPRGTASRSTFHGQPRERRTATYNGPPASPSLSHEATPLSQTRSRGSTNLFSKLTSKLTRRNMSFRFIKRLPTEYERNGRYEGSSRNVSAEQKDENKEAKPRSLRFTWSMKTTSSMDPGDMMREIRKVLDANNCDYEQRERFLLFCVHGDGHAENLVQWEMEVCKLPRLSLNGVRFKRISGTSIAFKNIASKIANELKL
Sequence of NUAK family SNF1-like kinase 1 (Homo sapiens) (O60285 whole entry): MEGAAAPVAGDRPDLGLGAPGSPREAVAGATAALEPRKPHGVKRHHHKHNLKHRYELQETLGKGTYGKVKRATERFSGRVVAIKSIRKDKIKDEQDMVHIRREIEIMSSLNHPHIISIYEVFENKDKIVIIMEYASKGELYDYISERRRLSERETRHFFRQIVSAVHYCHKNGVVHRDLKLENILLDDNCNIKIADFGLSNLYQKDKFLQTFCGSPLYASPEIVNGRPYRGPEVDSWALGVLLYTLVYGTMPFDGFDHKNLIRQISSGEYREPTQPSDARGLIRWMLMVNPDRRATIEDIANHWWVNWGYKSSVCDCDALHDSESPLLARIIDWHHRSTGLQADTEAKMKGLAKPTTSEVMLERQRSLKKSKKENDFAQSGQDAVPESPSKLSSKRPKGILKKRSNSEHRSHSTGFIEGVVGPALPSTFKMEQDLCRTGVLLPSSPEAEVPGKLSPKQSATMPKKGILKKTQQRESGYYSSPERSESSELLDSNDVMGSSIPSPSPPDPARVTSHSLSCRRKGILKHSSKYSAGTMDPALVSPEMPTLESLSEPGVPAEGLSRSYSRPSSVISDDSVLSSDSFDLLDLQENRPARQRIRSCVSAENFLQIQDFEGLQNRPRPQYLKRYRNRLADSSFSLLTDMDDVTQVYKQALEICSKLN

Cc1c(C(=O)O)cc(-c2ccc(C3CCNCC3)cc2)c2ccc(-c3ccc(C(F)(F)F)cc3)cc12 [PPTN-NC]
inactive: [1] 100% | [2] 100% | [3] 100% | [4] 100% | [5] 83% | [6] 100% | [7] 100% | [8] 100% | [9] 100% | [10] 100% | [11] 100% | [12] 100% | [13] 100% | [14] 100% | [15] 100% | [16] 81% | [17] 100% | [18] 100% | [19] 83% | [20] 100% | [21] 100% | [22] 100% | [23] 100% | [24] 100% | [25] 100% | [26] 100% | [27] 100% | [28] 100% | [29] 100% | [30] 100% | [31] 89% | [32] 100% | [33] 100% | [34] 100% | [35] 100% | [36] 100% | [37] 100% | [38] 80% | [39] 99% | [40] 97% | [41] 100% | [42] 100% | [43] 100% | [44] 100% | [45] 100%

O=C(O)c1cc(-c2ccc(C3CCNCC3)cc2)c2ccc(-c3ccc(C(F)(F)F)cc3)cc2c1 [PPTN]
inactive: [1] 100% | [2] 100% | [3] 100% | [4] 100% | [5] 84% | [6] 100% | [7] 100% | [8] 100% | [9] 100% | [10] 97% | [11] 100% | [12] 100% | [13] 94% | [14] 100% | [15] 100% | [16] 84% | [17] 100% | [18] 100% | [19] 100% | [20] 97% | [21] 100% | [22] 97% | [23] 100% | [24] 100% | [25] 100% | [26] 100% | [27] 100% | [28] 100% | [29] 100% | [30] 100% | [31] 100% | [32] 100% | [33] 100% | [34] 100% | [35] 100% | [36] 100% | [37] 100% | [38] 70% | [39] 90% | [40] 100% | [41] 100% | [42] 100% | [43] 100% | [44] 100% | [45] 100%
